# Values joined by “and” are separate entries in the source; they are usually repeats but may differ in a detail not shown here. Equal entries are not always repeated. Where two headings read alike, the source gives them in different places.
# Experiments:
# [1] = cationic species of FCZ in acidic solution; first value, CD not printed (β-CD assumed); cited from earlier work
# [2] = cationic species of FCZ in acidic solution; second value, CD not printed (HP-β-CD assumed); cited from earlier work
# [3] = In vitro permeability, Franz diffusion cell, regenerated cellulose membrane; assay type: in vitro ADME; conditions: for Papp at 5 h: read-out: Papp, Cellulose Membrane (RC)
# Procedure: (§1) Permeability experiments were performed using the reverse dialysis set-up adapted to the Franz diffusion cell (PermeGear, Inc., Hellertown, PA, USA). This method was successfully applied by di Cagno et al. for the permeability evaluation of a whole set of diverse drugs. The donor solution of the investigated compound was placed in the lower chamber. The membrane was mounted between the donor and acceptor chambers. At the start of the experiment, the upper (acceptor) compartment was filled with the respective pure buffer. The donor solution was stirred with a magnetic stirrer bar. The samples of 0.5 mL were withdrawn from the receptor solution each 30 min over 5 h and replaced with the same volume of pure buffer. The volume of the donor solution in the lower compartment was 7 mL and the receptor volume was 1 mL. A schematic diagram of the equipment is illustrated in Figure 2.
# (§2) Two types of barriers were applied for the permeability evaluation: the regenerated cellulose membrane (RC) with a molecular weight cut off MWCO 12–14 kDa (Standard Grade RC Dialysis Membrane, Flat Width 45 mm) and the PermeaPad (PP) barrier (PHABIOC, Germany, www.permeapad.com, accessed on 20 May 2021). The PermeaPad barrier was used as received from the supplier. The cellulose membrane was pretreated with distilled water for 30 min and the traces of water were removed with filter paper before use. The membrane effective surface area was 0.785 cm^2. Buffer solution pH 2.0 was applied throughout the experiment due to impossibility of the drug detection in the receptor solution at pH 7.4, where S-119 solubility is extremely low. […] The temperature of the system was maintained at 37.0 ± 0.1 °C. The concentrations of the sample solutions were measured using spectrophotometer (Spectramax 190; Molecular devices, Molecular Devices Corporation, California, CA, USA) in 96-well UV black plates (Costar) at λ = 261 nm. The permeation plots were constructed as the amount of the permeated drug over the surface area (dQ/A) versus time (t). Flux (J) was calculated as a slope of permeation plots by the equation:(2) J=dQ/A×dt
# (§3) The slope (J) normalized by the concentration of the drug in the donor compartment (C0) represents the apparent permeability coefficient (Papp):(3) Papp=J/C0
# (§4) The average value of Papp from at least 3 experiments was taken into consideration.
# [4] = donor: pure buffer pH 2.0; cited from earlier work
# [5] = cited from earlier work
# [6] = In vitro permeability, Franz diffusion cell, PermeaPad barrier; assay type: in vitro ADME; conditions: for Papp at 5 h: read-out: Papp, PermeaPad (PP)
# Procedure: as §1, §2, §3, §4
# [7] = Complexation with α-CD (phase solubility, Higuchi and Connors); assay type: physicochemical; conditions: for Stability constant (KS): S-119/α-CD complex; for Stability constant (KS) / Complexation efficiency (CE) / Gibbs free energy of complexation (ΔGC0): 25 °C; for Complexation efficiency (CE): S-119/α-CD
# Procedure: (§5) Excess amounts of S-119 were added to buffered aqueous solutions containing increasing concentrations of excipients.
# (§6) In order to analyze the information on solubilization, micelle formation and complexation obtained in the present study, the standard Gibbs energy (at 25 °C) of the outlined processes was calculated by the following equations:(7) ΔGS0(Cexc)=−RTlnS2/S20, where ΔGS0(Cexc) —the standard free energy of solubilization—transferring a compound from the aqueous buffer solution to the excipient solution of a defined concentration (Cexc), S20 and S2 —the solubility of a drug in pure buffer and at a defined excipient concentration, respectively; R is the universal gas constant; T is the standard temperature of 25 °C (8) ΔGC^0=−RTlnKs where ΔGC0 is the change of the complexation Gibbs energy, KS is the stability constant of the complexation reaction (9) ΔGm/w0=−RTlnKm/w where ΔGm/w0 is the standard Gibbs energy of the partition between the micelle and water phases, Km/w is the partition coefficient.
# [8] = Complexation with β-CD (phase solubility, Higuchi and Connors); assay type: physicochemical; conditions: for Stability constant (KS): S-119/β-CD complex; for Stability constant (KS) / Complexation efficiency (CE) / Gibbs free energy of complexation (ΔGC0): 25 °C; for Complexation efficiency (CE): S-119/β-CD
# Procedure: as §5, §6
# [9] = cited from earlier work; remark: listed apart in the source
# [10] = Phase solubility study: equilibrium solubility of S-119 in buffers with excipients; assay type: physicochemical; conditions: for solubility enhancement vs pure buffer: pH 2.0
# Procedure: as §5, §6
# [11] = Complexation with O-M-β-CD (phase solubility, Higuchi and Connors); assay type: physicochemical; conditions: for Gibbs free energy of complexation (ΔGC0) / Stability constant (KS) / Complexation efficiency (CE): 25 °C; for Stability constant (KS): S-119/O-M-β-CD complex; for Complexation efficiency (CE): S-119/O-M-β-CD
# Procedure: as §5, §6
# [12] = design: method as in doi:10.1016/j.molliq.2021.116535; conditions: cited from earlier work
# [13] = Complexation with HP-β-CD (phase solubility, Higuchi and Connors); assay type: physicochemical; conditions: for Gibbs free energy of complexation (ΔGC0) / Stability constant (KS) / Complexation efficiency (CE): 25 °C; for Stability constant (KS): S-119/HP-β-CD complex; for Complexation efficiency (CE): S-119/HP-β-CD
# Procedure: as §5, §6
# [14] = Micellar solubilization by non-ionic surfactants (solubilization capacity, micelle/water partition); conditions: F127; pH 7.4; 25 °C
# Procedure: Moreover, the increase in the surfactant concentration can reduce the number of hydrogen binding sites available for the association of the compound and surfactant. At that point, the surfactant molecules interact with water, affect its structuring and hinder the interactions with positively charged species. […] To this end, the solubilization capacity (χ) representing the amount of the compound that can be solubilized by one mole of polymer was calculated using the following equation [53]:(4) χ=(S2−S20)/(Csurf−CMC) where S2 and S20 are the total solute solubility at a particular concentration of surfactant solution and the intrinsic solute solubility, respectively; Csurf is the surfactant concentration; CMC is the surfactant critical micelle concentration. All concentrations are expressed in molarity. Taking into account that above the CMC the concentration of surfactant monomers is equal to the CMC, the concentration of micelles can be determined as (Csurf − CMC). The CMC of Brij S20 and F127 were taken from the literature [54, 55, 56, 57]. […] Besides this, a micelle/water molar partition coefficient (Km/w) was derived using the following equation [58]:(5) Km/w=Sm/S20=(S2−S20)/S20
# The favorable/unfavorable character of any process can be assessed using Gibbs free energy.
# [15] = pH 2, donor: pure buffer pH 2.0, 37 °C
# [16] = donor: 1.5 w/v% 6-O-M-β-CD in buffer pH 2.0, 37 °C
# [17] = donor: 1.5 w/v% HP-β-CD in buffer pH 2.0, 37 °C
# [18] = donor: 1.5 w/v% β-CD in buffer pH 2.0, 37 °C
# [19] = donor: pure buffer pH 2.0, 37 °C
# [20] = pH 2, donor: 1.5 w/v% 6-O-M-β-CD in buffer pH 2.0, 37 °C
# [21] = pH 2, donor: 1.5 w/v% HP-β-CD in buffer pH 2.0, 37 °C
# [22] = pH 2, donor: 1.5 w/v% β-CD in buffer pH 2.0, 37 °C
smiles,measurement,setting,value
"OC(Cn1cncn1)(Cn1cncn1)c1ccc(F)cc1F [FCZ, fluconazole]",KS,[1],10.7 M⁻¹
same,KS,[2],13.5 M⁻¹
same,"flux J, Cellulose Membrane (RC)","[3]; 5 h, pH 2",1.31 × 10^−4 µM∙cm^−2∙s^−1
same,Papp at 5 h,[3]; [15],49 ×10⁻⁶ cm/s
same,"Papp, PermeaPad (PP)",[4],(1.74 ± 0.03) × 10^−5 cm∙s^−1
same,solubility growth,[5]; 0.0016 M aqueous β-CD solution,1.1 fold
same,solubility increase,[5]; 0.004 M HP-β-CD,1.2 fold
same,higher solubility,[5]; 0.08 M aqueous HP-β-CD,4 fold
same,solubility enhancement,[5]; aqueous 0.02 M β-CD,1.84 fold
same,"flux J, PermeaPad (PP)","[6]; 5 h, pH 2",3.50 × 10^−5 µM∙cm^−2∙s^−1
"OC(CN1CCN(CC(O)(Cn2cncn2)c2ccc(F)cc2F)CC1)(Cn1cncn1)c1ccc(F)cc1F (stereo not drawn) [S-119, 3,3′-(piperazine-1,4-diyl)bis(2-(2,4-difluorophenyl)-1-(1H-1,2,4-triazol-1-yl)propan-2-ol)]",Stability constant (KS),[7]; pH 2.0,5.0 ± 0.2 M⁻¹ and 5 M⁻¹
same,Stability constant (KS),[7]; pH 7.4,304.4 ± 17 M⁻¹
same,Complexation efficiency (CE),[7]; pH 2.0,2.2%
same,Complexation efficiency (CE),[7]; pH 7.4,1.2%
same,phase solubility diagram type (Higuchi and Connors classification),"[7]; α-CD, both pHs",AL-type
same,Gibbs free energy of complexation (ΔGC0),"[7]; α-CD, pH 2.0",-0.956 kcal/mol
same,Gibbs free energy of complexation (ΔGC0),"[7]; α-CD, pH 7.4",-3.387 kcal/mol
same,Stability constant (KS),[8]; pH 2.0,27.4 ± 1.0 M⁻¹ and 27.4 M⁻¹
same,Stability constant (KS),[8]; pH 7.4,4424.9 ± 162.7 M⁻¹
same,Complexation efficiency (CE),[8]; pH 2.0,12.2%
same,Complexation efficiency (CE),[8]; pH 7.4,17.7%
same,phase solubility diagram type (Higuchi and Connors classification),"[8]; β-CD, linear region 0 to 0.003 M CD",BS-type
same,Gibbs free energy of complexation (ΔGC0),"[8]; β-CD, pH 2.0",-1.96 kcal/mol
same,complex stability relative to FCZ complex,"[8]; β-CD, pH 7.4",47 fold
same,Gibbs free energy of complexation (ΔGC0),"[8]; β-CD, pH 7.4",-4.974 kcal/mol
same,permeability decrease vs pure buffer,"[3]; RC membrane, 1.5 w/v% HP-β-CD donor solution, pH 2.0",1.87 fold
same,"flux J, Cellulose Membrane (RC)",[3]; [16],2.68 × 10^−5 µM∙cm^−2∙s^−1
same,"flux J, Cellulose Membrane (RC)",[3]; [17],2.21 × 10^−5 µM∙cm^−2∙s^−1
same,"flux J, Cellulose Membrane (RC)",[3]; [18],2.90 × 10^−5 µM∙cm^−2∙s^−1
same,"flux J, Cellulose Membrane (RC)",[3]; [19],3.49 × 10^−5 µM∙cm^−2∙s^−1
same,Papp at 5 h,[3]; [20],23.1 ×10⁻⁶ cm/s
same,Papp at 5 h,[3]; [21],14.5 ×10⁻⁶ cm/s
same,Papp at 5 h,[3]; [22],19.6 ×10⁻⁶ cm/s
same,Papp at 5 h,[3]; [15],27.1 ×10⁻⁶ cm/s
same,logD^oct,[9],1.43
same,solubility growth vs pure buffer,"[10]; 0.0015 M β-CD, pH 7.4",6.8 fold
same,solubility growth vs pure buffer,"[10]; 0.01 M HP-β-CD, pH 7.4",24 fold
same,solubility growth vs pure buffer,"[10]; 0.07 M HP-β-CD, pH 7.4",151 fold
same,solubility growth vs pure buffer,[10]; 20% PVP,232 fold
same,solubility enhancement vs pure buffer,[10]; 10 w/v% PEG 6000,1.45 fold
same,solubility enhancement vs pure buffer,[10]; 10 w/v% PEG 35000,1.20 fold
same,solubility enhancement vs pure buffer,[10]; 10 w/v% PVP,1.32 fold
same,growth of solubility vs pure buffer,"[10]; pH 7.4, 10 w/v% Brij S20",199 fold
same,growth of solubility vs pure buffer,"[10]; pH 7.4, 10 w/v% F-127",281 fold
same,extent of the solubilization vs pure buffer,"[10]; pH 7.4, PEG 6000",193 fold
same,extent of the solubilization vs pure buffer,"[10]; pH 7.4, PVP",232 fold
same,phase solubility diagram type (Higuchi and Connors classification),"[11]; O-M-β-CD, both pHs",AL-type
same,Gibbs free energy of complexation (ΔGC0),"[11]; O-M-β-CD, pH 2.0",-1.74 kcal/mol
same,Gibbs free energy of complexation (ΔGC0),"[11]; O-M-β-CD, pH 7.4",-4.866 kcal/mol
same,Stability constant (KS),[11]; pH 2.0,18.7 ± 0.7 M⁻¹
same,Stability constant (KS),[11]; pH 7.4,3693.4 ± 185.3 M⁻¹
same,Complexation efficiency (CE),[11]; pH 2.0,8.3%
same,Complexation efficiency (CE),[11]; pH 7.4,14.8%
same,solubility in aqueous solutions,[12]; pH 2.0,4450 µM
same,solubility in aqueous solutions,[12]; pH 7.4,40.1 µM
same,phase solubility diagram type (Higuchi and Connors classification),"[13]; HP-β-CD, both pHs",AL-type
same,Gibbs free energy of complexation (ΔGC0),"[13]; HP-β-CD, pH 2.0",-1.57 kcal/mol
same,complex stability relative to FCZ complex,"[13]; HP-β-CD, pH 7.4",52 fold
same,Gibbs free energy of complexation (ΔGC0),"[13]; HP-β-CD, pH 7.4",-4.577 kcal/mol
same,Stability constant (KS),[13]; pH 2.0,14.0 ± 0.6 M⁻¹
same,Stability constant (KS),[13]; pH 7.4,2261.0 ± 79.0 M⁻¹
same,Complexation efficiency (CE),[13]; pH 2.0,6.2%
same,Complexation efficiency (CE),[13]; pH 7.4,9.1%
same,Gibbs free energy of micelle formation (ΔGm/w0),[14],-6.205 kcal/mol
same,permeability class (classification of di Cagno et al. for PermeaPad),"[6]; 1.5 w/v% CDs in donor solution, pH 2.0",low-medium permeability class
same,permeability decrease vs pure buffer,"[6]; PP barrier, 1.5 w/v% O-M-β-CD donor solution, pH 2.0",2.63 fold
same,permeability class (classification of di Cagno et al. for PermeaPad),[6]; buffer pH 2.0,highly permeated substance
same,"flux J, PermeaPad (PP)",[6]; [16],1.01 × 10^−5 µM∙cm^−2∙s^−1
same,"flux J, PermeaPad (PP)",[6]; [17],1.00 × 10^−5 µM∙cm^−2∙s^−1
same,"flux J, PermeaPad (PP)",[6]; [18],9.93 × 10^−6 µM∙cm^−2∙s^−1
same,"flux J, PermeaPad (PP)",[6]; [19],2.20 × 10^−5 µM∙cm^−2∙s^−1
same,Papp at 5 h,[6]; [20],5.62 ×10⁻⁶ cm/s
same,Papp at 5 h,[6]; [21],7.81 ×10⁻⁶ cm/s
same,Papp at 5 h,[6]; [22],6.12 ×10⁻⁶ cm/s
same,Papp at 5 h,[6]; [15],14.8 ×10⁻⁶ cm/s
